Measurements as given in the CheMixHub ionic liquid set.
Several values for one entry are separate records, joined by “and”; a condition that tells them apart may be missing. Identical values can stand only once.

Assay: xn = mol fraction of the nth substance listed
Conditions: 101.3 kPa

CCCC[N+]1(C)CCCCC1.F[P-](F)(F)(F)(F)F + CCCC[n+]1cccc(C)c1.F[P-](F)(F)(F)(F)F + CCCC[N+]1(C)CCCC1.F[P-](F)(F)(F)(F)F
viscosity
Conditions | 333.15 K | 338.15 K | 343.15 K | 348.15 K | 353.15 K | 358.15 K | 363.15 K
x2 = 0.2, x1 = 0.32 | – | 194 mPa·s | 152 mPa·s | 121 mPa·s | 98 mPa·s | 80 mPa·s | 66 mPa·s
x2 = 0.3, x1 = 0.28 | – | 163 mPa·s | 129 mPa·s | 103 mPa·s | 84 mPa·s | 69 mPa·s | 57 mPa·s
x2 = 0.4, x1 = 0.06 | – | 111 mPa·s | 89 mPa·s | 72 mPa·s | 60 mPa·s | 50 mPa·s | 42 mPa·s
x2 = 0.4, x1 = 0.12 | – | 121 mPa·s | 97 mPa·s | 78 mPa·s | 64 mPa·s | 53 mPa·s | 45 mPa·s
x2 = 0.4, x1 = 0.18 | – | 125 mPa·s | 100 mPa·s | 81 mPa·s | 66 mPa·s | 55 mPa·s | 46 mPa·s
x2 = 0.4, x1 = 0.24 | – | 137 mPa·s and 138 mPa·s | 109 mPa·s | 87 mPa·s and 88 mPa·s | 71 mPa·s and 72 mPa·s | 59 mPa·s | 49 mPa·s
x2 = 0.4, x1 = 0.3 | – | 145 mPa·s | 115 mPa·s | 92 mPa·s | 75 mPa·s | 62 mPa·s | 51 mPa·s
x2 = 0.4, x1 = 0.36 | – | 155 mPa·s | 122 mPa·s | 97 mPa·s | 79 mPa·s | 65 mPa·s | 54 mPa·s
x2 = 0.4, x1 = 0.42 | – | 165 mPa·s | 129 mPa·s | 103 mPa·s | 83 mPa·s | 68 mPa·s | 56 mPa·s
x2 = 0.4, x1 = 0.48 | – | 176 mPa·s | 137 mPa·s | 109 mPa·s | 88 mPa·s | 71 mPa·s | 59 mPa·s
x2 = 0.4, x1 = 0.54 | – | 188 mPa·s | 146 mPa·s | 116 mPa·s | 93 mPa·s | 75 mPa·s | 62 mPa·s
x2 = 0.5, x1 = 0.2 | – | 117 mPa·s | 93 mPa·s | 75 mPa·s | 62 mPa·s | 51 mPa·s | 43 mPa·s
x2 = 0.6, x1 = 0.16 | 127 mPa·s | 100 mPa·s | 80 mPa·s | 65 mPa·s | 54 mPa·s | 45 mPa·s | 38 mPa·s
x2 = 0.7, x1 = 0.12 | 109 mPa·s | 87 mPa·s | 70 mPa·s | 57 mPa·s | 47 mPa·s | 39 mPa·s | 33 mPa·s
x2 = 0.8, x1 = 0.08 | 95 mPa·s | 76 mPa·s | 61 mPa·s | 50 mPa·s | 42 mPa·s | 35 mPa·s | 30 mPa·s
x2 = 0.9, x1 = 0.04 | 84 mPa·s | 67 mPa·s | 54 mPa·s | 45 mPa·s | 37 mPa·s | 31 mPa·s | 27 mPa·s
